“Also recorded” adds a separate entry of the source.
How the values were obtained:
[1] = cited from earlier work
[2] = biological target: T1, recombinant tau oligomers (TauO) (Homo sapiens, UniProt P10636); assay: Direct ELISA of recombinant tau oligomers with and without compounds; type: biochemical; conditions: increased concentration of curcumin
T1 construct: made in house
Experimental: ELISA assay was conducted as previously described (Lasagna-Reeves, Castillo-Carranza et al. 2010). […] After washing three times with TBS-T, plates were blocked for 1 hour at 37° C. with 120 μl of 10% non-fat milk in TBS-T. Plates were then washed three times with TBS-T, before probing with 100 μL of primary antibodies for 1 hour at 37° C., T22 (diluted 1:250 in 5% non-fat milk in TBS-T) and Tau 5 (diluted 1:10000 in 5% non-fat milk in TBS-T), respectively . Plates were then washed three times with TBS-T, and probed with 100 μL of horseradish peroxidase-conjugated anti-rabbit or anti-mouse IgG (Promega, Madison, WI) (diluted 1:10000 in 5% non-fat milk in TBS-T). After 1 hour of incubation at 37° C., plates were washed three times with TBS-T and developed with 3, 3, 5, 5-tetramethylbenzidine (TMB-lcomponent substrate, KPL, Gaithersburg, MD). The reaction was stopped by using 100 μL 1M HCl and samples were read at 450 nm using POLARstar OMEGA plate reader. All measurements were performed in triplicate
Compounds were dissolved in ETOH 75%/DMSO (5:1) at a final concentration of 5 mM and diluted in 1× PBS or ddH2O for incubation or toxicity assay (final concentration 5 μM). […]
ELISA assay was conducted as previously described (Lasagna-Reeves, Castillo-Carranza et al. 2010). […] The reaction was stopped using 100 μl of 1M HCl and absorbance was read at 450 nm using POLARstar OMEGA plate reader. […]

T1 sequence (P10636 1-441 isoform P10636-8): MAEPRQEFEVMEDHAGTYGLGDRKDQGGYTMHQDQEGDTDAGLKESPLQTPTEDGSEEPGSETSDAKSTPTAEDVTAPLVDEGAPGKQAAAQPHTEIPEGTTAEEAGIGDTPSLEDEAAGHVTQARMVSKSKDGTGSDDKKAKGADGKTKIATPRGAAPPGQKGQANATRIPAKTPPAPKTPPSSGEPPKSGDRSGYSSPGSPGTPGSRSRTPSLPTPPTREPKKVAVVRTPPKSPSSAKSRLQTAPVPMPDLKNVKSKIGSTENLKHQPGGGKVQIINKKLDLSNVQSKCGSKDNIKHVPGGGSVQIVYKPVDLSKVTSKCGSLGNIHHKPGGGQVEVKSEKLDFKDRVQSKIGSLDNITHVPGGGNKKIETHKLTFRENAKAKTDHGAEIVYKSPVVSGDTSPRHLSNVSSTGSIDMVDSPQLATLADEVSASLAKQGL

In the case of COc1cc(/C=C/C(=O)CC(=O)/C=C/c2ccc(O)c(OC)c2)ccc1O [curcumin], the “solubility in aqueous media” value [1] is listed as “poor solubility in aqueous buffers” and the “tau oligomer level, T22 immunoreactivity, direct ELISA” value [2] is listed as “significant decrease in T22 immunoreactivity; also recorded: significant decrease in oligomers”.

From US12391657B2, “Small molecules that bind and/or modulate differentforms of tau oligomers” (The Board of Regents of the University of Texas System, priority 2019, dated 2025)
